In the supplement of paper PMC10307832:

Columns and labels:
Assay in all cases: relative viability (nuclei count vs DMSO), 5 days (fraction); higher = more cells survive
Motesanib + Luminespib = compound: CC1(C)CNc2cc(NC(=O)c3cccnc3NCc3ccncc3)ccc21 [Motesanib] + CCNC(=O)c1noc(-c2cc(C(C)C)c(O)cc2O)c1-c1ccc(CN2CCOCC2)cc1 [Luminespib] (partner 0.01 µM)
Outline: (§1)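 Medians of duplicate plates are given as relative viability. That measure is the nuclei count in treated wells divided by the count in vehicle wells. Counts were taken on 4× images of lung cancer cell lines in 1536-well plates, 5 days after pin-tool dosing the day after seeding with one drug alone or a fixed anchor-drug dose plus five library-drug doses (not always all listed) in √10 steps.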

[1] = compound: C[C@@]1(C(=O)Nc2ccc(F)nc2)CCCN1c1nc(Nc2cc(C3CC3)n[nH]2)c2cccn2n1 + NC(=O)Nc1cc(-c2cccc(F)c2)sc1C(=O)N[C@H]1CCCNC1 [AZD7762] (partner 0.2 µM)
Outline: as §1

Motesanib + Pictilisib = compound: CC1(C)CNc2cc(NC(=O)c3cccnc3NCc3ccncc3)ccc21 [Motesanib] + CS(=O)(=O)N1CCN(Cc2cc3nc(-c4cccc5[nH]ncc45)nc(N4CCOCC4)c3s2)CC1 [Pictilisib] (partner 1 µM)
Outline: as §1

[2] = compound: C[C@@]1(C(=O)Nc2ccc(F)nc2)CCCN1c1nc(Nc2cc(C3CC3)n[nH]2)c2cccn2n1 + COc1cccc2cc(-c3nc([C@H]4CC[C@H](C(=O)O)CC4)n4ncnc(N)c34)[nH]c12 [OSI-027] (partner 0.5 µM)
Outline: as §1

Cell Line	relative viability (Motesanib + Luminespib; first compound 0.01 µM)	relative viability (Motesanib + Luminespib; first compound 0.03162 µM)	relative viability (Motesanib + Luminespib; first compound 0.1 µM)	relative viability (Motesanib + Luminespib; first compound 0.3162 µM)	relative viability (Motesanib + Luminespib; first compound 1 µM)	relative viability ([1]; first compound 0.04 µM)	relative viability ([1]; first compound 0.1265 µM)	relative viability ([1]; first compound 0.4 µM)	relative viability ([1]; first compound 1.265 µM)	relative viability (Motesanib + Pictilisib; first compound 0.01 µM)	relative viability (Motesanib + Pictilisib; first compound 0.03162 µM)	relative viability (Motesanib + Pictilisib; first compound 0.1 µM)	relative viability (Motesanib + Pictilisib; first compound 0.3162 µM)	relative viability (Motesanib + Pictilisib; first compound 1 µM)	relative viability ([2]; first compound 0.04 µM)	relative viability ([2]; first compound 0.1265 µM)	relative viability ([2]; first compound 0.4 µM)	relative viability ([2]; first compound 1.265 µM)
LU99A	0.228	0.187	0.336	0.243	0.25	0.294	0.243	0.223	0.143	0.348	0.327	0.309	0.386	0.352	0.251	0.233	0.223	0.186
LXF-289	0.639	0.71	0.655	0.724	0.743	1.1	1.03	0.968	1.12	0.776	0.811	0.774	0.806	0.835	0.633	0.463	0.407	0.353
NCI-H23		0.193	0.209	0.205	0.222	0.238	0.208	0.193	0.114	0.415	0.41		0.562	0.53	0.397	0.232	0.225	0.266
NCI-H322M	0.913	0.951	0.88	0.842	0.949	0.45	0.424	0.492	0.35	0.52	0.544	0.511	0.439	0.538	0.483	0.364	0.363	0.321
NCI-H358	0.317	0.333	0.402	0.479	0.369	0.389	0.392	0.171	0.282	0.303	0.336	0.351	0.435	0.338	0.415	0.179	0.15	0.138
NCI-H441	0.274	0.314	0.333	0.302	0.269	1.07	0.651	0.528	0.856	0.414	0.524	0.518	0.441	0.506	0.405	0.322	0.313	0.328
NCI-H460	0.0344	0.0382	0.0342	0.0458	0.0311	0.737	0.667	0.609	0.649	0.356	0.424	0.302	0.364	0.493	0.538	0.252	0.29	0.313
NCI-H596	1.17	0.917	1.07	0.988	0.871	1.1	1.07	0.94	1.19	0.391	0.427	0.362	0.384	0.406	0.63	0.557	0.555	0.793
NCI-H647	0.122	0.144	0.387	0.165	0.216	0.402	0.591	0.452	0.32		0.394	0.408	0.333	0.442	0.574	0.404	0.484	0.734
NCI-H650	0.788		0.81	0.837	0.801	1.16	0.609	0.729	0.828	0.832	0.757	0.875	0.992	0.854	0.459	0.214	0.306	0.289
NCI-H727	0.292	0.261	0.729	0.332	0.352	0.573	0.386	0.443	0.345	0.324	0.369	0.463	0.464	0.379	0.373	0.273	0.383	0.351
NCI-H838	0.316	0.295	0.355	0.286	0.216	0.981	0.918	0.814	0.872	0.496	0.441	0.462	0.449	0.508	0.362	0.192	0.182	0.28
NCI-H1355	0.719	0.659	0.658	0.77	0.637	0.694	0.579	0.539	0.598	0.47	0.475	0.406	0.502	0.485	0.272	0.236	0.21	0.251
NCI-H1395	0.662	0.665	0.65	0.876	0.866	0.395	0.416	0.396	0.364	0.61	0.566	0.609	0.646	0.703	0.727	0.561	0.668	0.665
NCI-H1437	1.13	1.07	1.08	1.1	1.15	1	1.25	0.688	0.745	0.441	0.441	0.467	0.502	0.406	0.703	0.272	0.208	0.205
NCI-H1651	0.673	0.89	0.8	0.921	0.892	0.52	0.371	0.409	0.447	0.607	0.538	0.516	0.562	0.51	0.658	0.525	0.423	0.501
NCI-H1666	1.05	0.978	0.991	0.999	0.977	0.838	0.667	0.642	0.552	0.466	0.5	0.416	0.463	0.49	0.611	0.488	0.568	0.426
NCI-H1734	0.161	0.188		0.199	0.201	0.54	0.459	0.377	0.446	0.446	0.496	0.461	0.479	0.48	0.42	0.29	0.268	0.293

Cell Line	relative viability (Motesanib + Luminespib; first compound 0.01 µM)	relative viability (Motesanib + Luminespib; first compound 0.03162 µM)	relative viability (Motesanib + Luminespib; first compound 0.1 µM)	relative viability (Motesanib + Luminespib; first compound 0.3162 µM)	relative viability (Motesanib + Luminespib; first compound 1 µM)	relative viability ([1]; first compound 0.04 µM)	relative viability ([1]; first compound 0.1265 µM)	relative viability ([1]; first compound 0.4 µM)	relative viability ([1]; first compound 1.265 µM)	relative viability (Motesanib + Pictilisib; first compound 0.01 µM)	relative viability (Motesanib + Pictilisib; first compound 0.03162 µM)	relative viability (Motesanib + Pictilisib; first compound 0.1 µM)	relative viability (Motesanib + Pictilisib; first compound 0.3162 µM)	relative viability (Motesanib + Pictilisib; first compound 1 µM)	relative viability ([2]; first compound 0.04 µM)	relative viability ([2]; first compound 0.1265 µM)	relative viability ([2]; first compound 0.4 µM)	relative viability ([2]; first compound 1.265 µM)
NCI-H1755	0.492	0.505	0.353	0.445	0.315	0.481	0.424	0.378	0.406	0.395	0.423	0.442	0.454	0.402	0.695	0.355	0.589	0.484
NCI-H1792	0.447	0.428	0.406	0.501	0.466	0.446	0.277	0.332	0.323	0.296	0.231	0.294	0.297	0.309	0.303	0.828	0.199	0.212
NCI-H1793	0.26	0.196	0.199	0.463	0.182	0.463	0.501	0.393	0.456	0.364	0.282	0.301	0.34	0.469	0.254	0.195		0.196
NCI-H1915	0.765	0.745	0.764	0.826	0.754	0.728	0.731	0.663	0.701	0.933	0.984	0.657	0.994	1.06	0.612	0.628	0.592	0.604
NCI-H1944	0.79	0.785	0.749	0.772	0.78	0.53	0.497	0.419	0.354	0.322	0.342	0.399	0.379	0.364	0.306	0.256	0.225	0.235
NCI-H1975	0.275	0.203	0.224	0.261	0.361	0.64	0.98	0.498	0.532	0.312	0.282	0.313	0.352	0.31	0.663	0.498	0.423	0.527
NCI-H1993	0.923	0.734	0.826	0.863	0.932	0.495	0.496	0.455	0.567	0.676	0.917	0.899	0.767	0.805	0.545	0.533	0.665	0.605
NCI-H2085	0.47	0.434	0.428	0.438	0.462	1.12	0.948	0.927	0.913	0.377	0.447	0.405	0.509	0.468	0.788	0.679	0.599	0.535
NCI-H2087	0.159	0.174	0.149	0.149	0.145	1.26	1.25	1.09	1.23	0.695	0.794	0.705	0.988	0.843	0.366	0.254	0.267	0.338
NCI-H2126	0.9	0.901	0.963	0.933	0.961	0.993	0.716	0.569	0.648	0.531	0.539	0.476	0.553	0.508	0.469	0.311	0.256	0.344
NCI-H2170	0.628	0.726	0.39	0.734	0.645	0.836	0.864	0.744	0.791	0.278	0.347	0.294	0.331	0.344	0.721	0.525	0.592	0.564
NCI-H2347	0.858	0.254	0.5	0.48	0.4	0.68	0.765	0.731	0.672	0.476	0.803	0.382	0.456	0.678	0.33	0.287	0.244	0.342
NCI-H2405		0.536	0.741	0.689	0.813	0.619	0.483	0.472	0.313		0.393	0.433	0.425	0.434	0.401	0.294	0.269	0.272
NCI-H3122	0.0808	0.0851	0.0914	0.0799	0.0833	0.79	0.88	0.651	0.831	0.46	0.534	0.618	0.626	0.667	0.499	0.86	0.275	0.412
PC-3 [JPC-3]	0.686	0.745	0.683	0.597	0.733	0.7	0.689	0.551	0.415	0.774	0.858	0.733	0.853	0.706	0.688	0.59	0.485	0.621
PC-14	0.117	0.142	0.126	0.218	0.154	0.391	0.394	0.308	0.348	0.729	0.695	0.84	0.72	0.858	0.869	0.284	0.563	0.279
RERF-LC-KJ	1.31	1.2	1.12	1.38	1.27	0.976	0.688	0.737	0.723	0.507	0.63	0.621	0.613	0.61	0.51	0.306	0.334	0.346
